In patent US20260248766A1, “GLUCOKINASE ACTIVATOR FOR COGNITIVE DISORDERS AND NEURODEGENERATIVE DISEASES” (HUA MEDICINE (SHANGHAI) LTD., priority 2023, published 2026):

Assays:
Format in all cases: in vivo, rat
GK rats [1] = assay: Fasting blood glucose in GK rats under long-term treatment; details: 8 mg/kg by gavage twice daily from six weeks of age, tested at weeks 6, 8, 12, 16, 20, 29, 31, FIG. 1
Text: Goto-Kakizaki (GK) rats are a non-obese, spontaneously occurring type 2 diabetes rat model obtained through repeated inbreeding of Wistar rats with glucose tolerance at the upper limit over several generations. […] The hippocampus is a key functional brain region regulating learning and memory abilities. Due to the presence of progressive diabetes symptoms, typical neurodegenerative diseases, and memory deficits, GK rats can be used to evaluate the effects of a drug on preventing memory decline.
(§1) GK rats were randomly divided into the following treatment groups: a GK rat-solvent treatment group (n=9) and a GK rat-Dorzagliatin (8 mg/kg) treatment group (n=8). Age-matched Wistar rats were used as the normal control group, i.e., the Wistar rat-solvent group (n=9). The treatment began at six weeks of age. The rats were administered either the solvent or Dorzagliatin by gavage twice daily, morning and evening. Peripheral blood was collected multiple times from the animals throughout the growth cycle, and the fasting blood glucose levels of the animals were tested (the fasting blood glucose levels of the three groups of rats were tested and analyzed at weeks 6, 8, 12, 16, 20, 29, and 31).

GK rats [2] = assay: Morris water maze spatial memory test (probe test) in GK rats; details: 8 mg/kg by gavage twice daily, about 27 weeks of treatment (33 weeks old), 1 minute probe test
Method: as §1
The Morris water maze test is a commonly used behavioral method to assess the spatial memory, working memory, and spatial discrimination abilities of rodents. […]
Preparation of the experimental environment: The laboratory environment was kept quiet. […] During the test, the latent period of escape, swimming path (distance), speed, and quadrant preference of a rat were recorded using the ANY-maze system. […]
Spatial memory test (probe test): The spatial memory test was performed 24 hours after the end of the training phase. […] The time spent in the original platform quadrant and the swimming distances were recorded, and the data of each group of animals were statistically analyzed.

[3] = tested on: insulin receptor isoform IR-A protein; assay: Western blot of IR-A protein in hippocampus of GK rats; details: hippocampus of GK rats after 37 weeks of treatment (43 weeks old); FIG. 5
Method: (§2) GK rats were euthanized after 37 weeks of treatment, i.e., when the rats were 43 weeks old, and hippocampal tissue of the GK rats was collected for western blotting to detect the protein expression levels of the biomarkers.
(§3) Animals under anesthesia were rapidly decapitated and their brains were removed in a hypothermic environment. The hippocampal tissue was separated on ice, placed in cryovials, flash-frozen in liquid nitrogen, and then stored in a −80° C. freezer for later use.
(§4) • (1) The tissue homogenizer (TissueLyser II high-throughput tissue homogenizer, QIAGEN) was pre-cooled at −20° C. The hippocampal tissue was taken out from the −80° C. freezer. […]
(§5) Based on the protein concentration determined in step (II), an appropriate amount of protein lysis buffer was added to adjust the protein concentration of each group to a suitable level. […]
(§6) After the membrane transfer was completed, the PVDF membranes were blocked with non-fat milk at room temperature for 1 hour. […] The eluted PVDF membranes were scanned using an electrochemiluminescence (ECL) method with a contact-based non-destructive quantitative imaging instrument (E-blot) to give a western blot image. […]

[4] = tested on: insulin receptor isoform IR-B protein; assay: Western blot of IR-B protein in hippocampus of GK rats; details: hippocampus of GK rats after 37 weeks of treatment (43 weeks old); FIG. 6
Method: as §2, §3, §4, §5, §6

[5] = tested on: glucose transporter 1 (GLUT1); assay: Western blot of GLUT1 in hippocampus of GK rats; details: hippocampus of GK rats after long-term treatment; FIG. 8
Text: (§7) The tissue sampling, protein extraction and quantification, preparation of the denaturated protein samples, and protein gel electrophoresis were completed successively using the steps (I) to (IV) of the above example 2.
(§8) Then, the gel obtained from the electrophoresis was used for membrane transfer. Biomarkers GLUT1, GLUT3, and GAPDH were transferred to a membrane using a semi-dry transfer method. The membrane was assembled in the following order: negative electrode-filter paper-gel-PVDF membrane-filter paper-positive electrode. The membrane transfer was performed at a constant current of 0.2 A at room temperature for 65 minutes.
(§9) After the membrane transfer was completed, the PVDF membranes (GLUT1, GLUT3, GAPDH) were blocked with non-fat milk at room temperature for 1 hour.
(§10) Calculation of the relative expression level of a protein: The western blot images were quantified using an image processing software ImageJ, and the gray value of a target band was measured and used to characterize the protein expression level of the target band. The gray value of a target protein was divided by the gray value of the internal reference protein GAPDH to perform normalization, which characterized the relative expression level of the target band. Statistical analysis was performed on the normalized value of each target band.

[6] = tested on: glucose transporter 3 (GLUT3); assay: Western blot of GLUT3 in hippocampus of GK rats; details: hippocampus of GK rats after long-term treatment; FIG. 9
Text: as §7, §8, §9, §10

[7] = tested on: ionotropic glutamate receptor subunit GluN2A; assay: Western blot of GluN2A in hippocampus of GK rats; details: hippocampus of GK rats after long-term treatment; FIG. 11
Text: as §7
(§11) Then, the gel obtained from the electrophoresis was used for membrane transfer. Biomarkers GluN2A and GluN2B were transferred to a membrane using a wet transfer method. The membrane was assembled in the following order: negative electrode-sponge-filter paper-gel-PVDF membrane-filter paper-sponge-positive electrode. The membrane transfer was performed at a constant voltage of 100 V in an ice bath for 70 minutes.
(§12) After the membrane transfer was completed, the PVDF membranes were blocked with BSA or non-fat milk (GluN2A and GluN2B membranes were blocked with BSA, and GAPDH membrane was blocked with non-fat milk), respectively, at room temperature for 1 hour. […] The eluted PVDF membranes were scanned using an electrochemiluminescence (ECL) method with a contact-based non-destructive quantitative imaging instrument (E-blot) to give a western blot image.
(§13) Calculation of the relative expression level of a protein: The western blot images were quantified using an image processing software ImageJ, and the gray value of a target band was measured and used to characterize the protein expression level of the target band. […]

[8] = tested on: ionotropic glutamate receptor subunit GluN2B; assay: Western blot of GluN2B in hippocampus of GK rats; details: hippocampus of GK rats after long-term treatment; FIG. 12
Text: as §7, §11, §12, §13

## CC(C)C[C@@H](C(=O)Nc1ccn(C[C@@H](O)CO)n1)N1CC(Oc2ccccc2Cl)=CC1=O [Dorzagliatin]
GK rats [1]
  fasting blood glucose levels vs GK rat-solvent group: significantly lower than those of the GK rat-solvent group
GK rats [2]; FIG. 2
  time spent in the original platform quadrant (mean±SEM): 20.1 s
GK rats [2]; FIG. 3
  swimming distance in the original platform quadrant (mean±SEM): 4.21 m
[3]
  normalized value of IR-A protein band (gray value / GAPDH, mean±SEM): 1.46±0.08
[4]
  normalized value of IR-B protein band (gray value / GAPDH, mean±SEM): 1.64±0.06
[5]
  normalized value of GLUT1 band (gray value / GAPDH, mean±SEM): 1.67±0.06
[6]
  normalized value of GLUT3 band (gray value / GAPDH, mean±SEM): 1.22±0.13
[7]
  normalized value of GluN2A band (gray value / GAPDH, mean±SEM): 1.05±0.07
[8]
  normalized value of GluN2B band (gray value / GAPDH, mean±SEM): 0.87±0.02
